Test results: patent US20200131180A1, “POSITIVE ALLOSTERIC MODULATORS OF THE MUSCARINIC ACETYLCHOLINE RECEPTOR M1” (Vanderbilt University, priority 2018, published 2020)

Target: T1, human mAChR M1 (Homo sapiens, UniProt P11229)
T1 sequence (P11229 1-460): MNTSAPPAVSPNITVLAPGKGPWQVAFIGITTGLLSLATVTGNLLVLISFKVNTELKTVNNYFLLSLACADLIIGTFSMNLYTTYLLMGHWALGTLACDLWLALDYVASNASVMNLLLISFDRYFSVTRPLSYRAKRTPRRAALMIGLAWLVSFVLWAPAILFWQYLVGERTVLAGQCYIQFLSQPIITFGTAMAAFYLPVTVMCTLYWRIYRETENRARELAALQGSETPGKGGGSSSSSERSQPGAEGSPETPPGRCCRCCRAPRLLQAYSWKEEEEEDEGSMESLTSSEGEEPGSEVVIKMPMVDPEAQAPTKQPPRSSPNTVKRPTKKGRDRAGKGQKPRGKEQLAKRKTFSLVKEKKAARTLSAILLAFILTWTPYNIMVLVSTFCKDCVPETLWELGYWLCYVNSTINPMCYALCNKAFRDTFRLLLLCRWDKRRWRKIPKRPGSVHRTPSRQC
Test: mAChR M1 cell-based functional assay (calcium mobilization, PAM activity)
Details: CHO-K1 cells expressing hM1, calcium flux (Fluo-4); for EC50: concentration-dependent increase in the EC20 acetylcholine response; for Emax: potentiation of EC20 acetylcholine response
Outline: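 CHO-K1 cells stably expressing hM1, Fluo-4 AM-loaded; compounds (11-point 1:3 CRC) added, then acetylcholine at EC20 (144 s) and EC80 (230 s). Calcium flux read by FDSS fluorescence ratio; PAM activity is the concentration-dependent increase in the EC20 ACh response, Emax relative to ACh maximum; four-parameter logistic fit.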

Structure (SMILES)	EC50 [µM]	Emax [%]
Cn1cc(-c2ccc(Cc3cc(C(=O)N[C@H]4CCC[C@@H]4O)c4nccn4c3)c(F)c2)cn1 [compound 58, 6-[[2-fluoro-4-(1-methylpyrazol-4-yl)phenyl]methyl]-N-[(1S,2S)-2-hydroxycyclopentyl]imidazo[1,2-a]pyridine-8-carboxamide]	0.991	84
Cn1ccc(-c2ccc(Cc3cc(C(=O)N[C@H]4CCC[C@@H]4O)c4nccn4c3)c(F)c2)n1 [compound 59, 6-[[2-fluoro-4-(1-methylpyrazol-3-yl)phenyl]methyl]-N-[(1S,2S)-2-hydroxycyclopentyl]imidazo[1,2-a]pyridine-8-carboxamide]	1.2	79
O=C(N[C@H]1CCCC[C@@H]1O)c1cc(Cc2ccc(-n3cccn3)nc2)cn2ccnc12 [compound 60, N-[(1S,2S)-2-hydroxycyclohexyl]-6-[(6-pyrazol-1-yl-3-pyridyl)methyl]imidazo[1,2-a]pyridine-8-carboxamide]	1.01	47
O=C(N[C@H]1CCCCC[C@@H]1O)c1cc(Cc2ccc(-n3cccn3)nc2)cn2ccnc12 [compound 61, N-[(1S,2S)-2-hydroxycycloheptyl]-6-[(6-pyrazol-1-yl-3-pyridyl)methyl]imidazo[1,2-a]pyridine-8-carboxamide]	2.54	52
Cn1cc(-c2ccc(Cc3cc(C(=O)N[C@H]4CCCC[C@@H]4O)c4nccn4c3)cc2)cn1 [compound 62, N-[(1S,2S)-2-hydroxycyclohexyl]-6-[[4-(1-methylpyrazol-4-yl)phenyl]methyl]imidazo[1,2-a]pyridine-8-carboxamide]	0.699	89
O=C(N[C@H]1CCOC[C@@H]1O)c1cc(Cc2ccc(-n3cccn3)nc2)cn2ccnc12 [compound 63, N-[(3R,4S)-3-hydroxytetrahydropyran-4-yl]-6-[(6-pyrazol-1-yl-3-pyridyl)methyl]imidazo[1,2-a]pyridine-8-carboxamide]	4.82	67
O=C(N[C@H]1CCCC[C@@H]1O)c1cc(Cc2ccc(C(F)(F)F)nc2)cn2ccnc12 [compound 64, N-[(1S,2S)-2-hydroxycyclohexyl]-6-[[6-(trifluoromethyl)-3-pyridyl]methyl]imidazo[1,2-a]pyridine-8-carboxamide]		46
Cn1cc(-c2ccc(Cc3cc(C(=O)N[C@H]4CCOC[C@@H]4O)c4nccn4c3)cc2)cn1 [compound 65, N-[(3R,4S)-3-hydroxytetrahydropyran-4-yl]-6-[[4-(1-methylpyrazol-4-yl)phenyl]methyl]imidazo[1,2-a]pyridine-8-carboxamide]	1.36	90
O=C(N[C@H]1CCOC[C@@H]1O)c1cc(Cc2ccc(C(F)(F)F)nc2)cn2ccnc12 [compound 66, N-[(3R,4S)-3-hydroxytetrahydropyran-4-yl]-6-[[6-(trifluoromethyl)-3-pyridyl]methyl]imidazo[1,2-a]pyridine-8-carboxamide]		36
O=C(NC1CCOCC1)c1cc(Cc2ccc(-n3cccn3)cc2)cc2ncnn12 [compound 67, 7-(4-(1H-pyrazol-1-yl)benzyl)-N-(tetrahydro-2H-pyran-4-yl)-[1,2,4]triazolo[1,5-a]pyridine-5-carboxamide]		46
